In PubChem BioAssay (NCI):
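96-well plates; 48 h exposure; 5 concentrations. Endpoints by linear interpolation between flanking doses. Not reached: highest tested concentration assigned. The concentration for full growth arrest is given as TGI.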

Columns and labels:
Assay in all cases: NCI-60 cell line screen, 48 h
[1] = system: 786-0 renal
[2] = system: A498 renal
[3] = system: A549 NSCLC
[4] = system: ACHN renal
[5] = system: BT-549 breast
[6] = system: CAKI-1 renal
[7] = system: CCRF-CEM leukemia
[8] = system: COLO 205 colon
[9] = system: DU-145 prostate
[10] = system: EKVX NSCLC
[11] = system: HCC-2998 colon
[12] = system: HCT-116 colon
[13] = system: HCT-15 colon
[14] = system: HL-60(TB) leukemia
[15] = system: HOP-62 NSCLC
[16] = system: HOP-92 NSCLC
[17] = system: HS 578T breast
[18] = system: HT29 colon
[19] = system: IGROV1 ovarian
[20] = system: K-562 leukemia
[21] = system: KM12 colon
[22] = system: LOX IMVI melanoma
[23] = system: M14 melanoma
[24] = system: MALME-3M melanoma
[25] = system: MCF7 breast
[26] = system: MDA-MB-231 breast
[27] = system: MDA-MB-435
[28] = system: MDA-N
[29] = system: MOLT-4 leukemia
[30] = system: NCI-H226 lung
[31] = system: NCI-H23 lung
[32] = system: NCI-H460 lung
[33] = system: NCI-H522 lung
[34] = system: OVCAR-3 ovarian
[35] = system: OVCAR-4 ovarian
[36] = system: OVCAR-5 ovarian
[37] = system: OVCAR-8 ovarian
[38] = system: PC-3 prostate
[39] = system: RPMI-8226 leukemia
[40] = system: RXF 393 renal
[41] = system: SF-268 CNS
[42] = system: SF-295 CNS
[43] = system: SF-539 CNS
[44] = system: SK-MEL-2 melanoma
[45] = system: SK-MEL-28 melanoma
[46] = system: SK-MEL-5 melanoma
[47] = system: SK-OV-3 ovarian
[48] = system: SN12C renal
[49] = system: SNB-19 CNS
[50] = system: SR leukemia
[51] = system: SW-620 colon
[52] = system: T-47D breast
[53] = system: TK-10 renal
[54] = system: U251 CNS
[55] = system: UACC-257 melanoma
[56] = system: UO-31 renal
[57] = system: SNB-75 CNS
[58] = system: UACC-62 melanoma

## C=CCNC(=O)N1CC(C)C(=O)Nc2ccccc21 (stereo not given)
[1]
  TGI: > 100 µM
[2]
  TGI: > 100 µM
[3]
  TGI: > 100 µM
[4]
  TGI: > 100 µM
[5]
  TGI: > 100 µM
[6]
  TGI: > 100 µM
[7]
  TGI: > 100 µM
[8]
  TGI: > 100 µM
[9]
  TGI: > 100 µM
[10]
  TGI: > 100 µM
[11]
  TGI: > 100 µM
[12]
  TGI: > 100 µM
[13]
  TGI: > 100 µM
[14]
  TGI: > 100 µM
[15]
  TGI: > 100 µM
[16]
  TGI: > 100 µM
[17]
  TGI: > 100 µM
[18]
  TGI: > 100 µM
[19]
  TGI: > 100 µM
[20]
  TGI: > 100 µM
[21]
  TGI: > 100 µM
[22]
  TGI: > 100 µM
[23]
  TGI: > 100 µM
[24]
  TGI: > 100 µM
[25]
  TGI: > 100 µM
[26]
  TGI: > 100 µM
[27]
  TGI: > 100 µM
[28]
  TGI: > 100 µM
[29]
  TGI: > 100 µM
[30]
  TGI: > 100 µM
[31]
  TGI: > 100 µM
[32]
  TGI: > 100 µM
[33]
  TGI: > 100 µM
[34]
  TGI: > 100 µM
[35]
  TGI: > 100 µM
[36]
  TGI: > 100 µM
[37]
  TGI: > 100 µM
[38]
  TGI: > 100 µM
[39]
  TGI: > 100 µM
[40]
  TGI: > 100 µM
[41]
  TGI: > 100 µM
[42]
  TGI: > 100 µM
[43]
  TGI: > 100 µM
[44]
  TGI: > 100 µM
[45]
  TGI: > 100 µM
[46]
  TGI: > 100 µM
[47]
  TGI: > 100 µM
[48]
  TGI: > 100 µM
[49]
  TGI: > 100 µM
[50]
  TGI: > 100 µM
[51]
  TGI: > 100 µM
[52]
  TGI: > 100 µM
[53]
  TGI: > 100 µM
[54]
  TGI: > 100 µM
[55]
  TGI: > 100 µM
[56]
  TGI: > 100 µM

## O=C1C=CC(=O)c2c(O)c(NCCCN3CCOCC3)c(Cl)c(O)c21
[1]
  TGI: 5.23 µM
[2]
  TGI: > 10 µM
[3]
  TGI: > 10 µM
[4]
  TGI: > 10 µM
[5]
  TGI: 3.28 µM
[9]
  TGI: 2.95 µM
[11]
  TGI: 3.71 µM
[12]
  TGI: 2.93 µM
[13]
  TGI: 3.12 µM
[15]
  TGI: 3.86 µM
[17]
  TGI: 3.14 µM
[18]
  TGI: 7.34 µM
[19]
  TGI: 3.58 µM
[20]
  TGI: 8.68 µM
[21]
  TGI: 3.8 µM
[22]
  TGI: 4.26 µM
[23]
  TGI: 4.18 µM
[24]
  TGI: 3.56 µM
[25]
  TGI: 3.31 µM
[26]
  TGI: 7.96 µM
[27]
  TGI: 3.62 µM
[28]
  TGI: 3.09 µM
[30]
  TGI: > 10 µM
[31]
  TGI: 3.43 µM
[32]
  TGI: > 10 µM
[34]
  TGI: 2.99 µM
[36]
  TGI: 3.1 µM
[37]
  TGI: > 10 µM
[38]
  TGI: 9.91 µM
[39]
  TGI: 1.54 µM
[40]
  TGI: 3.13 µM
[41]
  TGI: 7.07 µM
[42]
  TGI: 5.49 µM
[43]
  TGI: 3.21 µM
[44]
  TGI: 0.526 µM
[45]
  TGI: 3.17 µM
[46]
  TGI: 2.4 µM
[47]
  TGI: > 10 µM
[48]
  TGI: 3.68 µM
[49]
  TGI: 3.25 µM
[57]
  TGI: 4.15 µM
[50]
  TGI: 4.64 µM
[51]
  TGI: 4.22 µM
[52]
  TGI: > 10 µM
[53]
  TGI: > 10 µM
[54]
  TGI: 5.55 µM
[55]
  TGI: 4.94 µM
[58]
  TGI: 4.81 µM
[56]
  TGI: 3.64 µM
